In patent US7754767B2, “Method for treatment of premature ejaculation in humans” (Trinity Laboratories, Inc., priority 2002, dated 2010):
Several values for one entry are separate records, joined by “and”; a condition that tells them apart may be missing. Equal values may be shown once.

Tests used:
[1] = Plasma concentrations of DM after oral DM with or without quinidine (HPLC); assay type: in vivo, human; details: blood sampled 10-12 hours later, per volunteer
Description: Five patients with a symptom of having premature ejaculation were orally administered 120 mg of DM, with no co-administration of quinidine. Between 10 and 12 hours later, blood was sampled, blood plasma was isolated by centrifugation, and the plasma was analyzed to determine the DM concentration using the HPLC method. During a different week, the same patients were orally administered 60 mg of DM (half the control dosage) and 150 mg of quinidine. Between 10 and 12 hours later, blood was sampled and the plasma was analyzed for DM using thebaine/HPLC. The results, in Table 1, indicate that quinidine causes a major increase in the concentration of DM in the blood plasma.

cyclooxygenase-2 (COX-2) = cyclooxygenase-2 (COX-2) (Homo sapiens, UniProt P35354); details: cited from earlier work
cyclooxygenase-2 (COX-2), sequence (P35354 18-604, species assumed): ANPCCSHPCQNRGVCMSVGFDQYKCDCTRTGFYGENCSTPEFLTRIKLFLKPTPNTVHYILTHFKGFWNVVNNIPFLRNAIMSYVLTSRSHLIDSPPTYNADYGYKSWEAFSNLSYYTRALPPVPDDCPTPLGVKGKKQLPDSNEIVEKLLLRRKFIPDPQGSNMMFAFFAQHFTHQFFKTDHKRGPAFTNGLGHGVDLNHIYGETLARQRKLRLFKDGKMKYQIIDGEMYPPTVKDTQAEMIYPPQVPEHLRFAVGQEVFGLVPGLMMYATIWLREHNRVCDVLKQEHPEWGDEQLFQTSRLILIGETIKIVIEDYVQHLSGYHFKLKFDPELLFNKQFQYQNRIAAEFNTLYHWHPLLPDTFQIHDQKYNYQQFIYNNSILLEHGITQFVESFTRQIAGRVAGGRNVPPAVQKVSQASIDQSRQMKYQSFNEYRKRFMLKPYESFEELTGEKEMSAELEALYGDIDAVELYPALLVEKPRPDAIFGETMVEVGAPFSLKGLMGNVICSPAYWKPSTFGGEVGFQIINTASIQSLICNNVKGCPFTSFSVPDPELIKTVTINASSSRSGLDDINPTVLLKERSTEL

[2] = target: phosphodiesterase type 5 (PDE5) (Homo sapiens, UniProt O76074); details: in vitro; PDE5 vs PDE6; cited from earlier work
[3] = oral administration, Viagra formulation; cited from earlier work

Which “PLASMA CONCENTRATION of DM” value ([1]; 60 mg DM + 150 mg quinidine oral) does the source give for `COc1ccc2c(c1)[C@@]13CCCC[C@H]1[C@@H](C2)N(C)CC3` [DM, (+)-3-methoxy-N-methylmorphinan] here?
The value was 34.2 ng/mL and 42.4 ng/mL and 30.2 ng/mL and 26.8 ng/mL and 10.2 ng/mL.

What about the “PLASMA CONCENTRATION of DM” value ([1]; 120 mg DM oral, quinidine 0 mg) of the same compound?
The value was 13.5 ng/mL and 15.4 ng/mL and <1 ng/mL (2×) and 5.7 ng/mL.

With `CS(=O)(=O)c1ccc(C2=C(c3ccccc3)C(=O)OC2)cc1` [rofecoxib] as the compound, how does the “specificity for inhibiting COX-2 (over COX-1)” value (cyclooxygenase-2 (COX-2)) read?
Its value is “about 350 fold”.

With `CCCc1nn(C)c2c(=O)[nH]c(-c3cc(S(=O)(=O)N4CCN(C)CC4)ccc3OCC)nc12` [sildenafil, 1-[[3-(6,7-dihydro-1-methyl-7-oxo-3-propyl-1H-pyrazolo[4,3-d]pyrimidin-5-yl)-4-ethoxyphenyl]sulfonyl]-4-methyl piperazine] as the compound, how does the “potency for PDE5 compared to PDE6” value [2] read?
Its value is “about 10 fold”.

And the absolute bioavailability [3]?
The absolute bioavailability was “about 40%”.
